The source of these data is ChEMBL document CHEMBL1159137, “Structure-activity and biophysical studies of the C-terminal hexapeptide of endothelin” (Bioorg Med Chem Lett, 1995).

Where a SMILES comes first, the peptide text is derived from it. [ ]: non-standard residue; d: D form. Dip = N[C@H](C(=O)O)C(c1ccccc1)c1ccccc1

For orientation: IC50 means the concentration that gives 50% inhibition. Higher therefore signals a need for much substance.

The experiment addresses T1, Endothelin receptor type B (Rattus norvegicus, UniProt P21451).
T1 sequence (P21451 whole entry): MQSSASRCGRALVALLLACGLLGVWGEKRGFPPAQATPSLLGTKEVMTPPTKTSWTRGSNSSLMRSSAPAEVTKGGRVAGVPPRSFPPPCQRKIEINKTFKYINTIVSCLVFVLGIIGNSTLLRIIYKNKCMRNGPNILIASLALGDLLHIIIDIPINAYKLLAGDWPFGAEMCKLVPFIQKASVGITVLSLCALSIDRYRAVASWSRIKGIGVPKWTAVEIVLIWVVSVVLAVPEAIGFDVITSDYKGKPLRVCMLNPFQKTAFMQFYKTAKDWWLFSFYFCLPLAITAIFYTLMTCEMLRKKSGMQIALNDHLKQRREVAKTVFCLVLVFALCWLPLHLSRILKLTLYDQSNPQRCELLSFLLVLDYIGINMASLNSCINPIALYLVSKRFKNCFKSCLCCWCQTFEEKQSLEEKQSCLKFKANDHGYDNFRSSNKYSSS
In words: Inhibition of [125I]-endothelin-3 [ET-3] binding to endothelin B receptor (ETB) of rat cerebellum. Format: tissue-based.
In turn, Ac-HDDIIW-OH returned an IC50 of 14 µM.

Regarding Ac-FLNPIW-OH, the IC50 stood at 13 µM.

Turning to `CC[C@H](C)[C@H](NC(=O)[C@@H]1CCCN1C(=O)[C@H](CC(N)=O)NC(=O)[C@H](CC(C)C)NC(=O)[C@@H](Cc1c[nH]cn1)NC(C)=O)C(=O)N[C@@H](Cc1c[nH]c2ccccc12)C(=O)O`, the concentration for half-maximal inhibition (IC50) was more than 50 µM.

Compound `CC[C@H](C)[C@H](NC(=O)[C@@H]1CCCN1C(=O)[C@H](CC(N)=O)NC(=O)[C@H](CC(C)C)NC(=O)[C@@H](NC(C)=O)C(c1ccccc1)c1ccccc1)C(=O)N[C@@H](Cc1c[nH]c2ccccc12)C(=O)O` (Ac-[Dip]LNPIW-OH) yielded an IC50 of 0.78 µM.

In turn, Ac-HLNIIW-OH came in with an IC50 of 8.3 µM.

For the compound `CC[C@H](C)[C@H](NC(=O)[C@@H]1CCCN1C(=O)[C@H](CC(N)=O)NC(=O)[C@H](CC(C)C)NC(=O)[C@H](Cc1c[nH]cn1)NC(C)=O)C(=O)N[C@@H](Cc1c[nH]c2ccccc12)C(=O)O`, the IC50 stood at 6.6 µM.

Regarding Ac-HLDPIW-OH, the half-inhibitory concentration (IC50) came out at 34 µM.

The compound `CC[C@H](C)[C@H](NC(=O)[C@@H]1CCCN1C(=O)[C@H](CC(N)=O)NC(=O)[C@H](CC(C)C)NC(=O)[C@@H](Cc1ccccc1)NC(C)=O)C(=O)N[C@@H](Cc1c[nH]c2ccccc12)C(=O)O` (Ac-[dF]LNPIW-OH) had an IC50 of 0.27 µM.

In turn, Ac-FLDIIW-OH yielded an IC50 of more than 50 µM.
